We go through four molecules from paper PMC6718149, “Structure of GTP cyclohydrolase I from Listeria monocytogenes, a potential anti-infective drug target” (Acta Crystallographica. Section F, Structural Biology …, 2019).

Data set [1] addresses T1, GTP cyclohydrolase I from L. monocytogenes (Listeria monocytogenes serovar 1/2a, UniProt Q8Y5X1).
T1 construct: made in house; host or cells: Escherichia coli XL1-Blue, plasmid pNCO-His6-EK-LmGTP-CHI
Briefly: Photometric GTP cyclohydrolase I inhibition assay (330 nm), IC50 determination of screening hits. The format is biochemical. The following applies: GTP cyclohydrolase I from L. monocytogenes (red curve); 200 µM GTP, pH 7.5; calculated with DynaFit. On the procedure:
(§1) In order to explore the druggability of the protein, we screened a small library of about 9000 highly diverse compounds (Bracher et al., 1998[▸]). Assays were run in 384-well plates and were monitored photometrically at 330 nm. Hits were rescreened against GTP cyclohydrolase I from L. monocytogenes and human GTP cyclohydrolase I, and IC50 values were determined using the photometric assay. […] Although stronger inhibitors have been reported down to a K i of 5.4 nM (Tanaka et al., 2005[▸]), all of the inhibitors reported so far are substrate or product analogs.
(§2) Assay mixtures contained 50 mM Tris hydrochloride, pH 7.5, 100 mM KCl, 200 µM GTP, and protein. They were monitored photometrically at 330 nm.
(§3) S2. High throughput screen
(§4) A substance library of 9,000 test compounds (courtesy of BASF Crop protection division, Ludwigshafen, Germany) was tested against GTP cyclohydrolase I protein from L. monocytogenes in 384 well clear bottom plates (Corning, polystyrol, flat-bottom, non-treated surface). 32 wells of each plate were used as “signal”, i.e. as positive control with enzyme and substrate, but without test compound. 32 wells of each plate were used as “control”, i.e. as negative control with substrate but without enzyme or test compound. Each of the remaining 320 wells contained app. 50 µM test compound (depending on the molecular weight of a given test substance) in 3 µL DMSO. The compounds were pipetted with a Hamilton Starlet robot (Hamilton Germany GmbH, Planegg, Germany) with a 96-tip pipetting block. Enzyme (final concentration 8.7 µM) and substrate (final concentration 200 µM) were supplied in separate solutions that both contained 50 mM Tris hydrochloride, pH 7.5 and 100 mM KCl. 30 µL per well of both solutions were filled in to the assay plates with an 8-fold dispenser (Bio Tek Germany, Bad Friedrichshall, Germany) and the plates were then centrifuged for 1 min at 1,000 rpm and room temperature. The reaction was monitored with a SpectraMax M5 plate reader photometer (Molecular Devices GmbH, Biberach a. d. Riss, Germany) at 330 nm and room temperature for 30 min. […]

The target in data set [2] is T2, human GTP cyclohydrolase I (Homo sapiens, UniProt P30793).
T2 construct: made in house
T2 sequence (P30793 43-250 limits assumed): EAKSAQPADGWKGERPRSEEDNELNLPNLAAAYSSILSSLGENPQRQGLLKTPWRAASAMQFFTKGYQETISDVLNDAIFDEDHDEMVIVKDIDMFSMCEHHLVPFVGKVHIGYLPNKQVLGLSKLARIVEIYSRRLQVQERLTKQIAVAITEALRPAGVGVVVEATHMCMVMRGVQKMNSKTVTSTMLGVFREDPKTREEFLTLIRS
Briefly: Photometric counterscreen against human GTP cyclohydrolase I (330 nm). As to conditions: human GTP cyclohydrolase I (blue curve); 200 µM GTP, pH 7.5; calculated with DynaFit. The class given is biochemical. As for the experimental part: as §1, §2, §3, §4

Data set [3] concerns the molecule itself. Briefly: crystal structure; sitting-drop vapor diffusion, 1.33 M sodium citrate, 0.1 M HEPES pH 7.3; 2.4 Å; one decamer in the asymmetric unit.

Bounds are passed on as bounds.

On to `C=CCNc1nc(N)c(C(=O)c2ccc3c(c2)OCO3)s1` [(a)], for which the IC50 (usually the point on the concentration scale where inhibition reaches its midpoint) in data set [1] is 13 ± 1 µM; in data set [2], > 500 µM. For `O=C1CS/C(=N/N=C/c2ccc(-c3ccc(Cl)cc3)o2)N1` [(b)], in that order: 27 ± 6 µM and 238 ± 40 µM. With `Cc1ccc(OC(=S)Nc2ccc(NC(=S)Oc3ccc(C)cc3)cc2)cc1` [(c)], the values for the IC50 in data set [1] and in data set [2] were 36 ± 3 µM and 327 ± 66 µM, respectively.

B1: GTP cyclohydrolase I from Listeria monocytogenes (enzyme, L. monocytogenes)
chain: EQIDKQKIADAVKVILEAVGENPDREGLIDTPMRVARMYEEVFAGLKKDPSVHFDTIFEEQHEELVLVKDIRFSSMCEHHLVPFFGVAHVAYLPQNGRVAGLSKLARVVDDVSRRPQLQERITTTVAEIMMEKLKPLGVMVIMEAEHMCMTIRGVNKPGTKTITSAVRGAFKNDDKLRSEVLALIKHN
modifications: Cys78 and Cys150 oxidized to the disulfide level (in the crystal; zinc lost)
notes: GTP cyclohydrolase I (folE), L. monocytogenes ATCC BAA-679; the natural stretch begins at Glu (first cloned triplet GAG) and runs to the stop codon; the printed Cys78 and Cys150 fit numbering with this Glu as residue 2; D5-symmetric homodecamer; also called LmGTPCHI; His6-EK-LmGTP-CHI; source: E. coli XL1-Blue (plasmid pNCO-His6-EK-LmGTP-CHI), purified (nickel-NTA agarose, Superdex 200); not …
For the molecule B1, in data set [3], the stoichiometry N – broadly, a count of units in the complex or per binding partner – worked out at 10.
